Assays:
SCC1 and 6 = experiment: Tumor models examined with NM404 (Table 2); type: in vivo, Nude mouse xenograft; details: Squamous cell carcinoma
Description: NM404 has now been evaluated in 27 animal tumor models, including several lung, and it is clear that once the agent enters tumor cells, it reaches a metabolic dead end and becomes trapped. […] NM404 is also retained in spontaneous murine lung tumors (FIG. 13). Using ^125I-labeled NM404, the inventors have been able to image mammary and prostate tumors in mice in excess of 60 days. […] Imaging and tissue distribution studies performed in mouse models aimed at determining the uptake characteristics in a wide variety of tumor models are summarized in Table 2.
Although tumor retention can be explained by a lack of metabolic phospholipase enzymes in the tumor cell membranes, the exact mechanism of tumor cell uptake is unknown. […] The inventors are currently evaluating the selectivity of NM404 in a unique mouse tumor model developed at Wisconsin, wherein both preneoplastic hyperplasias and malignant adenocarcinomas form spontaneously in the mammary gland. […] If this initial observation is validated, then via genomic and or proteomic analysis the inventors may be able to identify a key genetic difference between malignant tumors and their non malignant predecessor cells. This could identify a completely new molecular therapeutic target that may be universal for all types of cancer.

[1] = Human safety study of unlabeled NM404 in normal volunteers; type: in vivo
Procedure: Formal toxicology studies of NM404 in male rats and rabbits were performed at the Toxicology Research Center of the State University of New York at Buffalo under the direction of Dr. Paul Kostyniak. Drug vehicle and drug product were provided to Dr. Kostyniak by Dr. Raymond Counsell of the University of Michigan for testing as described in the appended synopses of Study 27 and Study 28. […] Human safety studies of unlabeled NM404 were initiated in normal male humans at a mass of 10 times the anticipated imaging dose and about 21 times the anticipated therapy dose. […] This toxicology study was performed under GLP conditions.
Safety assessment in normal male subjects healthy normal female subjects were carried out and it was determined that a dose level of 3 μg/kg of C-NM-404 is safe to administer to male subjects. […] A dose level of 3 μg/kg of C-NM-404 is safe to administer to female subjects.

[2] = test system: PC3 human prostate cancer; experiment: Radiotherapy study in PC-3 SCID mouse xenograft model; type: in vivo; details: after treatment
Procedure: PC-3 (human prostate cancer, from ATCC) are maintained in Ham's F-12K media supplemented with 10% fetal bovine serum. Tumor cell suspension (1×10^6 cells in phosphate-buffered saline) is injected s.c. into the right flank of male SCID mice (6-8 weeks, C.B-17/IcrHsd-Prkcd^scid, Harlan). Animals are given free access to food and water, tumor growth and animal weight are monitored. Upon reaching 4-5 mm in diameter, mice will be divided into groups of 6 for therapy study.
Single injection of SF404A at Day 0
Groups: • (1) 5 study groups: 4 treatment+1 control • (2) N=6 per group • (3) 4 acute dose levels: 50, 150, 250 and 500 μCi per mouse • (4) Control group dosed with equivalent mass amount of NM404: 0 μCi per mouse (“cold” NM404)

SMILES	NM404 Tumor Localization (SCC1 and 6)	dose level safe to administer ([1]; female subjects)	dose level safe to administer ([1]; male subjects)	toxicity ([1]; normal male humans, 10 times the anticipated imaging dose)	time at which treatment and control tumor growth curves separate [2]
C[N+](C)(C)CCOP(=O)([O-])OCCCCCCCCCCCCCCCCCCc1ccc(I)cc1 [NM-404, 18-(4-iodophenyl)-octadecylphosphocholine]	Yes (Localization defined as >5% injected dose per gram tumor basis based on tissue distribution data)	3 µg/kg	3 µg/kg	no toxicity attributable to the drug substance	–
C[N+](C)(C)CCOP(=O)([O-])OCCCCCCCCCCCCCCCCCCc1ccc([125I])cc1 [Compound I-125-NM404]	–	–	–	–	4-5 weeks

From patent US9579406B2, “Phospholipid ether analogs as agents for detecting and locating cancer, and methods thereof” (Cellectar, Inc., priority 2004, dated 2017)
